Laboratory results: the supplement of paper PMC10331698
± gives the standard deviation of the averaged measurements.

Columns and labels:
Assay in all cases: LOEC (log10 uM (lowest observed effect concentration))
[1] = compound: O=C(O)C(F)(F)C(F)(F)C(F)(F)C(F)(F)C(F)(F)C(F)(F)C(F)(F)C(F)(F)C(F)(F)F [Perfluorodecanoic acid]
Method: (§1)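 BioMAP Diversity Plus panel in human primary cell co-cultures, 4 concentrations in duplicate blinded samples. Responses are log10 fold change versus DMSO control, processed with tcpl v2.1.0. A hit is called when responses at any concentration exceed the cutoff (the larger of 3*bmad or log10(1.2)); the lowest observed effect concentration (modl_ga, log10 uM) is reported for hits.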

[2] = compound: OCCCC(F)(F)C(F)(F)C(F)(F)C(F)(F)C(F)(F)C(F)(F)C(F)(F)F [7:3 Fluorotelomer alcohol]
Method: as §1

[3] = compound: CCN(CCO)S(=O)(=O)C(F)(F)C(F)(F)C(F)(F)C(F)(F)C(F)(F)C(F)(F)C(F)(F)C(F)(F)F [N-Ethyl-N-(2-hydroxyethyl)perfluorooctanesulfonamide]
Method: as §1

[4] = compound: C[N+](C)(C)CCCNS(=O)(=O)C(F)(F)C(F)(F)C(F)(F)C(F)(F)C(F)(F)C(F)(F)C(F)(F)C(F)(F)F [Perfluorooctanesulfonamido ammonium iodide]
Method: as §1

| Test System | LOEC (log10 uM) [1] | LOEC (log10 uM) [2] | LOEC (log10 uM) [3] | LOEC (log10 uM) [4] |
| --- | --- | --- | --- | --- |
| BF4T SRB down | 1.3 | 1.78 |  |  |
| BE3C IL1a down | 1.3 | 1.78 | 1.54 ± 0.34 |  |
| KF3CT MCP1 down | 1.07 ± 0.32 | 1.54 ± 0.34 |  |  |
| IMphg IL8 down |  |  |  | 1.54 ± 0.34 |
| SAg MCP1 down | 1.78 | 1.54 ± 0.34 | 1.54 ± 0.34 |  |
| KF3CT MIG down | 1.78 | 1.54 ± 0.34 | 1.78 |  |
| KF3CT PAI1 down | 1.3 | 1.3 | 0.845 | 1.78 |
| 4H VCAM1 down | 1.78 | 1.78 |  |  |
| hDFCGF MCSF up |  |  |  | 1.78 |
| 4H Pselectin down | 1.78 | 1.78 | 1.54 ± 0.34 | 1.78 |
| CASM3C SRB down |  | 1.54 ± 0.34 | 1.3 |  |
| BF4T MMP9 down | 1.3 | 1.78 |  | 1.78 |
| BF4T VCAM1 down | 1.3 | 1.78 |  |  |
| CASM3C IL6 down |  | 1.78 |  |  |
| CASM3C LDLR up |  |  |  | 1.54 ± 0.34 |
| LPS VCAM1 down | 1.78 | 1.54 ± 0.34 | 1.78 | 1.78 |
| BF4T Keratin818 down | 1.3 | 1.78 |  | 1.78 |
| SAg SRB down | 1.78 | 1.78 | 1.3 | 1.78 |
| BF4T CD90 down | 1.3 | 1.78 |  |  |
| IMphg ESelectin up |  |  | 0.845 |  |
| LPS CD69 down | 1.78 | 1.78 | 0.845 |  |
| BE3C ICAM1 down | 1.3 | 1.78 |  |  |

| Test System | LOEC (log10 uM) [1] | LOEC (log10 uM) [2] | LOEC (log10 uM) [3] | LOEC (log10 uM) [4] |
| --- | --- | --- | --- | --- |
| BT xIL6 down |  | 1.3 | 1.78 |  |
| CASM3C uPAR down |  | 1.78 | 1.54 ± 0.34 |  |
| LPS TissueFactor up |  |  | 1.07 ± 0.32 |  |
| hDFCGF EGFR down |  | 1.3 |  |  |
| BT Bcell Proliferation down |  | 1.3 | 1.54 ± 0.34 |  |
| MyoF TIMP1 down | 1.78 | 1.78 |  |  |
| BE3C SRB down | 1.3 | 1.78 | 1.78 |  |
| LPS PGE2 down | 1.78 |  |  | 1.3 |
| LPS IL8 down | 1.78 | 1.78 |  | 1.3 |
| KF3CT uPA down | 1.78 | 1.54 ± 0.34 | 1.78 |  |
| BT xIL17A down |  | 1.3 | 1.3 | 1.78 |
| BE3C IL8 down | 1.3 | 1.78 | 1.3 | 1.54 ± 0.34 |
| LPS Thrombomodulin up |  |  | 0.573 ± 0.39 |  |
| 3C Eselectin down | 1.78 | 1.54 ± 0.34 |  |  |
| MyoF CollagenIV down |  | 1.78 |  |  |
| SAg CD69 down | 1.78 | 1.78 | 1.54 ± 0.34 |  |
| LPS SRB down | 1.78 | 1.78 | 1.54 ± 0.34 | 1.78 |
| 4H SRB down | 1.78 | 1.78 | 1.54 ± 0.34 |  |
| 4H VEGFRII up |  |  |  | 1.78 |
| LPS Eselectin down | 1.78 | 1.78 |  |  |
| IMphg CD69 down | 1.78 |  | 1.3 | 1.3 |
| KF3CT IL1a down | 1.78 | 1.54 ± 0.34 | 1.3 |  |

| Test System | LOEC (log10 uM) [1] | LOEC (log10 uM) [2] | LOEC (log10 uM) [3] | LOEC (log10 uM) [4] |
| --- | --- | --- | --- | --- |
| BT sIgG down |  | 1.54 ± 0.34 | 1.3 | 1.78 |
| hDFCGF CollagenIII down | 1.78 | 1.3 |  | 1.07 ± 0.32 |
| BE3C uPAR down | 1.3 | 1.78 | 1.78 |  |
| IMphg MIP1a down | 1.78 |  |  | 1.78 |
| 3C IL8 down | 1.78 | 1.78 |  | 1.78 |
| LPS IL1a down | 1.78 |  | 1.3 | 1.54 ± 0.34 |
| CASM3C LDLR down |  | 1.78 | 1.07 ± 0.32 |  |
| IMphg MIP1a up |  | 1.78 | 1.3 |  |
| BF4T MMP3 up |  |  | 1.78 | 1.78 |
| CASM3C Thrombomodulin up |  |  | 1.3 |  |
| BE3C MIG down | 1.3 | 1.78 | 1.78 |  |
| BE3C MMP9 down | 1.3 | 1.78 | 1.54 ± 0.34 |  |
| CASM3C VCAM1 down | 1.78 | 1.3 | 1.07 ± 0.32 |  |
| hDFCGF TIMP2 up |  |  | 0.845 | 1.07 ± 0.32 |
| SAg IL8 down | 1.78 | 1.54 ± 0.34 |  |  |
| BF4T IL8 down |  | 1.78 |  |  |
| IMphg SRB.Mphg down | 1.78 |  |  | 1.04 ± 1 |
| SAg MIG down | 1.78 | 1.78 |  |  |
| 4H uPAR down | 1.78 | 1.78 |  |  |
| BE3C Keratin818 down | 1.3 | 1.78 |  |  |
| 3C TissueFactor up |  |  |  | 1.78 |
| 3C VCAM1 down | 1.78 | 1.3 |  |  |

| Test System | LOEC (log10 uM) [1] | LOEC (log10 uM) [2] | LOEC (log10 uM) [3] | LOEC (log10 uM) [4] |
| --- | --- | --- | --- | --- |
| LPS Thrombomodulin down | 1.78 | 1.78 |  |  |
| BF4T tPA up |  |  | 1.78 |  |
| BF4T MMP3 down | 1.54 ± 0.34 | 1.78 |  |  |
| BE3C ITAC down | 1.3 | 1.78 | 1.78 |  |
| KF3CT ICAM1 down | 1.78 | 1.54 ± 0.34 |  |  |
| CASM3C PAI1 down |  | 1.78 |  |  |
| BF4T MMP1 down | 1.3 |  |  |  |
| BT xIL2 down |  | 1.3 | 1.3 | 1.78 |
| MyoF Decorin down | 1.78 | 1.78 |  |  |
| LPS MCP1 down | 1.78 | 1.54 ± 0.34 | 1.78 |  |
| CASM3C SAA down |  | 1.78 |  |  |
| IMphg ESelectin down | 1.78 |  |  |  |
| KF3CT IP10 down | 1.3 | 1.54 ± 0.34 | 1.3 | 1.78 |
| BE3C EGFR down |  | 1.78 | 1.78 |  |
| IMphg SRB down | 1.78 | 1.78 | 1.78 | 1.78 |
| MyoF Decorin up |  |  |  | 1.07 ± 0.32 |
| 4H MCP1 down | 1.78 | 1.78 |  |  |
| BE3C PAI1 down | 1.3 | 1.78 | 1.78 |  |
| 3C Thrombomodulin up |  |  | 1.3 |  |
| LPS TNFa down | 1.78 | 1.54 ± 0.34 |  | 1.3 |
| KF3CT IL8 down |  | 1.78 | 0.845 |  |
| SAg Eselectin down | 1.78 | 1.78 |  |  |

| Test System | LOEC (log10 uM) [1] | LOEC (log10 uM) [2] | LOEC (log10 uM) [3] | LOEC (log10 uM) [4] |
| --- | --- | --- | --- | --- |
| SAg CD38 down | 1.78 | 1.54 ± 0.34 | 1.3 |  |
| SAg CD40 down | 1.78 | 1.78 | 1.78 | 1.78 |
| CASM3C MCP1 down |  | 1.3 |  |  |
| CASM3C MCSF down |  | 1.54 ± 0.34 |  |  |
| KF3CT MMP9 down | 1.07 ± 0.32 | 1.3 | 1.54 ± 0.34 | 1.78 |
| CASM3C HLADR down |  | 1.54 ± 0.34 | 1.54 ± 0.34 |  |
| BF4T uPA down | 1.3 | 1.78 |  |  |
| IMphg VCAM1 down | 1.78 |  |  | 1.54 ± 0.34 |
| CASM3C MIG down |  | 1.3 | 1.3 |  |
| IMphg MCP1 down | 1.78 | 1.78 |  |  |
| LPS TissueFactor down | 1.78 | 1.78 |  |  |
| KF3CT SRB down | 1.78 | 1.54 ± 0.34 |  | 1.78 |
| BE3C uPA down | 1.3 | 1.78 | 1.78 |  |
| MyoF IL8 down |  |  | 0.845 |  |
| BE3C tPA down | 1.3 | 1.78 |  | 1.78 |
| KF3CT TIMP2 down | 1.78 | 1.3 |  |  |
| BF4T IL1a down | 1.54 ± 0.34 | 1.78 |  | 1.78 |
| MyoF bFGF down | 1.78 | 1.78 |  | 1.78 |
| LPS MCSF down | 1.78 | 1.78 |  | 1.78 |
| BE3C MMP1 down | 1.3 | 1.78 |  |  |
| 4H VEGFRII down | 1.78 | 1.78 |  |  |
